Measured values as given in patent US20050171424A1, “Methods for imaging the lymphatic system using dendrimer-based contrast agents” (The Gov. of the USA as rep. by the Secretary of the Dept. …, priority 2004, published 2005).

Columns and labels:
[1] = test system: Draining Lymph Nodes (LNs) From the Normal Breast Tissue; experiment: Dynamic micro-MR mammo-lymphangiography of lymphatic drainage from the normal mammary gland; assay type: in vivo, mice (Balb/c, athymic nu/nu)
Description: (§1) Mice were anesthetized with 1.15 mg sodium pentobarbital (Dainabot, Osaka, Japan), and then injected with 0.15-0.24 μmol Gd/5-8 μL of the PAMAM-G6 contrast agent into normal mammary glands or mammary tissue surrounding a tumor (peritumorally). Dynamic micro-MR images were obtained using a 1.5-Tesla superconductive magnet unit (Signa LX, General Electric Medical System, Milwaukee, Wis.) with a birdcage type coil of 3 cm diameter fixed by a custom made coil holder. [Single and double “breast coils” used for imaging breasts in humans are commercially available, for example, from GE Medical Systems (Milwaukee, Wis.) and are routinely available in outpatient MRI centers] The mice were wrapped with gauze to stabilize their body temperature and were placed at the center of the coils.
In order to evaluate the lymphatic drainage from the normal mammary gland of either Balb/c mice (n=5) or athymic nu/nu mice (n=5), 3D-fast spoiled gradient echo [3D-fastSPGR (efgre3d package; Signa Horizon, GE); repetition time/echo time 19.2/7.2 msec; inversion time 47 msec; 31.2 kHz, flip angle 30°, 4 excitations; 36 slice encoding steps; scan time 4 min 49 seconds] with chemical shift fat-suppression was used 6, 12, 18, 24, 30, 36, 42, and 48 min after injection of the contrast agent. The coronal images were reconstructed with 0.6-mm section thickness every 0.3-mm. The FOV was 8×4 cm and the size of the matrix was 512×256. The slice data were processed into 3D images using the maximum intensity projection (MIP) method with the same window and level (window 3500 and level 2100) (Advantage Windows, General Electric Medical System). After imaging, the mice were sacrificed by carbon dioxide inhalation.

[2] = test system: draining lymph nodes and lymphatic vessels; experiment: 3D dynamic mammo-lymphangiograms after sequential injection of GPDM and PAMAM-G6 into the mammary gland; assay type: in vivo, athymic nu/nu mice; conditions: 0.15 μmol Gd into mammary gland; GPDM imaged at 12, 24, 36 min, then PAMAM-G6 injected 36 minutes following GPDM
Description: Mice were anesthetized with 1.15 mg sodium pentobarbital (Dainabot, Osaka, Japan), and then injected with 0.15-0.24 μmol Gd/5-8 μL of the PAMAM-G6 contrast agent into normal mammary glands or mammary tissue surrounding a tumor (peritumorally). Dynamic micro-MR images were obtained using a 1.5-Tesla superconductive magnet unit (Signa LX, General Electric Medical System, Milwaukee, Wis.) with a birdcage type coil of 3 cm diameter fixed by a custom made coil holder. [Single and double “breast coils” used for imaging breasts in humans are commercially available, for example, from GE Medical Systems (Milwaukee, Wis.) and are routinely available in outpatient MRI centers] The mice were wrapped with gauze to stabilize their body temperature and were placed at the center of the coils. Athymic nu/nu mice (n=4) were anesthetized and injected with 0.15 μmol Gd of GPDM into the mammary gland, and images were taken 12, 24, and 36 min after injection. Following these three images, these mice were subsequently injected with 0.15 μmol Gd of PAMAM-G6 contrast agent in the mammary gland, and images were taken at 12 and 24 min post-injection of the PAMAM-G6 contrast agent (at 48 and 60 min post-injection of GPDM).

[3] = test system: lymphatic drainage from tumor-bearing mammary glands; experiment: Mammo-MR-lymphangiography of tumor-bearing mammary glands, BALB-neuT transgenic breast cancer model; assay type: in vivo, BALB-neuT transgenic mice; conditions: FIG. 4
Description: The breast-tumor bearing mice were thirty one week-old BALB-neuT mice (n=3) transgenic for the rat HER-2/neu (Erb B2) oncogene under the control of the mouse mammary tumor virus promotor (MMTV). […] BALB-neuT mice were used because of their spontaneous development of bilateral breast cancers and lymph node metastases. […] Most metastatic lymph nodes from the mouse mammary pad localize in the neck, lateral thoracic, or axillary region.
Mice were anesthetized with 1.15 mg sodium pentobarbital (Dainabot, Osaka, Japan), and then injected with 0.15-0.24 μmol Gd/5-8 μL of the PAMAM-G6 contrast agent into normal mammary glands or mammary tissue surrounding a tumor (peritumorally). Dynamic micro-MR images were obtained using a 1.5-Tesla superconductive magnet unit (Signa LX, General Electric Medical System, Milwaukee, Wis.) with a birdcage type coil of 3 cm diameter fixed by a custom made coil holder. [Single and double “breast coils” used for imaging breasts in humans are commercially available, for example, from GE Medical Systems (Milwaukee, Wis.) and are routinely available in outpatient MRI centers] The mice were wrapped with gauze to stabilize their body temperature and were placed at the center of the coils. […]

[4] = test system: lymphatic drainage from PT-18 tumor-bearing mammary gland; experiment: Mammo-MR-lymphangiography of PT-18 tumor xenograft-bearing mammary gland; assay type: in vivo, athymic nu/nu mice; conditions: FIG. 5
Description: Tumor xenografts of PT-18, a murine mast cell line, were introduced into the left mammary pad in athymic nu/nu mice. When 10^7 PT-18 cells were injected in the left mammary pad of 10 athymic nu/nu mice, six mice developed tumor masses in the left axillary lymph nodes within three weeks.
as §1
In order to evaluate lymphatic drainage from six tumor-bearing mammary glands of three BALB-neuT transgenic mice or the PT-18 tumor-bearing mammary gland of athymic nu/nu mice (n=6), 2D fast-inversion recovery [2D-fastIR; repetition time/echo time 8000/96 msec; inversion time 150 msec; 31.2 kHz, 2 excitations; 16 slices; scan time 2 min 16 seconds] was employed to evaluate the tumor localization before injection of PAMAM-G6 contrast agent. The coronal images were reconstructed with 1.5 mm section thickness without a gap. The FOV was 8×4 cm and the size of matrix was 512×256. The slice data were processed into 3D images using the MIP method with the same window and level (window 3500 and level 2100) (Advantage Windows, GE). Then images were obtained with the 3D-fastSPGR sequence as described above.

[5] = Distribution and survival properties of the dendrimer conjugates; conditions: in vivo
[6] = 6 min after injection into normal mammary gland
[7] = 12 min after injection into normal mammary gland
[8] = 18 min after injection into normal mammary gland
[9] = 24 min after injection into normal mammary gland
[10] = 30 min after injection into normal mammary gland
[11] = 36 min after injection into normal mammary gland
[12] = 42 min after injection into normal mammary gland
[13] = 48 min after injection into normal mammary gland

PAMAM-G6D-(Gd-1B4M)256 dendrimer conjugate
Visualized LNs/Total Examined LNs, Axillary LN [1, 6]: 10/10 | Visualized LNs/Total Examined LNs, Lateral thoracic LN [1, 6]: 0/10 | Visualized LNs/Total Examined LNs, Superficial cervical LN [1, 6]: 1/10 | Visualized LNs/Total Examined LNs, Axillary LN [1, 7]: 10/10 | Visualized LNs/Total Examined LNs, Lateral thoracic LN [1, 7]: 1/10 | Visualized LNs/Total Examined LNs, Superficial cervical LN [1, 7]: 1/10 | Visualized LNs/Total Examined LNs, Axillary LN [1, 8]: 10/10 | Visualized LNs/Total Examined LNs, Lateral thoracic LN [1, 8]: 2/10 | Visualized LNs/Total Examined LNs, Superficial cervical LN [1, 8]: 1/10 | Visualized LNs/Total Examined LNs, Axillary LN [1, 9]: 10/10 | Visualized LNs/Total Examined LNs, Lateral thoracic LN [1, 9]: 4/10 | Visualized LNs/Total Examined LNs, Superficial cervical LN [1, 9]: 2/10 | Visualized LNs/Total Examined LNs, Axillary LN [1, 10]: 10/10 | Visualized LNs/Total Examined LNs, Lateral thoracic LN [1, 10]: 4/10 | Visualized LNs/Total Examined LNs, Superficial cervical LN [1, 10]: 2/10 | Visualized LNs/Total Examined LNs, Axillary LN [1, 11]: 10/10 | Visualized LNs/Total Examined LNs, Lateral thoracic LN [1, 11]: 5/10 | Visualized LNs/Total Examined LNs, Superficial cervical LN [1, 11]: 3/10 | Visualized LNs/Total Examined LNs, Axillary LN [1, 12]: 10/10 | Visualized LNs/Total Examined LNs, Lateral thoracic LN [1, 12]: 6/10 | Visualized LNs/Total Examined LNs, Superficial cervical LN [1, 12]: 3/10 | Visualized LNs/Total Examined LNs, Axillary LN [1, 13]: 10/10 | Visualized LNs/Total Examined LNs, Lateral thoracic LN [1, 13]: 6/10 | Visualized LNs/Total Examined LNs, Superficial cervical LN [1, 13]: 3/10 | Mice in which the axillary lymph node and its afferent lymphatic vessels were visualized ([1]; initial (6 min) time point): all 10 mice | Visualization of draining lymph nodes and lymphatic vessels (FIG. 3) [2]: clearly visualized | Imaging of enlarged lymph nodes containing tumor metastases and dilated lymphatic vessels [3]: clearly imaged | Visualization of flow within the draining lymphatic vessels ([3]; peritumoral injection): readily visualized | Enhancement of axillary lymph node tissue with metastatic tumor cells [4]: did not shown enhancement | Enhancement of the lymphatic vessel flowing into the lymph node with a metastatic tumor [4]: dilated and showed enhancement | Visualization of flow within the draining lymphatic vessels ([4]; peritumoral injection): readily visualized | Survival period in the lymph system [5]: intermediate survival period in the lymph system
